Source: patent US10144730B2, “Inhibitors of c-Jun-N-terminal kinase (JNK)” (Dana-Farber Cancer Institute, Inc., priority 2011, dated 2018)
Read-outs that look alike come from different tables or passages of the source.

Key:
[1] = target: additional kinase targets; assay: Follow-up enzymatic IC50 or Kd on potential additional kinase targets; details: further biochemical and binding assays
Description: Scores were obtained from the profiling against a […] using Kinome Scan™ technology as illustrated in FIG. 11.
To complement the KiNativ profiling, the in vitro kinase selectivity of several key compounds was comprehensively evaluated by two complementary approaches: a kinase-binding assays against a panel of 442 distinct kinases using the KINOMEscan methodology (DiscoverX) and a standard radioactivity-based enzymatic assays against a panel of 124 kinases (The National Centre for Protein Kinase Profiling in Dundee). […] It was attempted to confirm all these potent binding targets using either an enzymatic kinase assay or through the measurement of a dissociation constant to the kinase in question.

c-Jun phosphorylation [2] = assay: High throughput microscopy of c-Jun phosphorylation in A375 cells; type: cell-based; details: Homo sapiens, A-375
c-Jun phosphorylation [3] = assay: Western blot of anisomycin-stimulated phosphorylation in HEK293-IL1R cells; type: cell-based
Experimental: FIGS. 16A and 16B depict Western blot results. […] Cell lysates were prepared, resolved by SDS-PAGE, and p-c-Jun (Ser63) and p-JNK were monitored by Western blot.
HEK-293 cells stably expressing Interleukin Receptor 1 (HEK293-IL1R) were cultured in Dulbecco's Modified Eagle's medium (DMEM) supplemented with 10% FBS, 2 mM glutamine and 1× antimycotic/antibiotic solution. Cells were serum starved for 18 h before incubation with DMSO or different inhibitors, stimulated with 2 μM anisomycin (Sigma) for 1 h, and lysates were clarified by centrifugation for 10 min at 16000 g and 4° C.
Rabbit polyclonal antibodies against total pan JNK isoforms ((#9252), phospho-pan JNK isoforms (Thr183/Tyr185), (#4668), total p38 (#9212) or phospho-p38 MAPK (Thr180/Tyr182), (4631 resp.), total c-Jun (#9165), phospho-c-Jun (Ser63) (#9261), and phospho-MSK1 (Ser376) (#9591) were from Cell Signalling technology.
Cell lysates (30 μg) were resolved by electrophoresis on SDS polyacrylamide gels (10%) or Novex 4-12% gradient gels, and electroblotted to nitrocellulose membranes. Membranes were blocked with 5% skimmed milk (w/v) in 50 mM Tris/HCl (pH 7.5) 0.15 M NaCl, and 0.1% (v/v) Tween (TBST Buffer). Primary antibodies were used at a concentration of 1 μg/ml, diluted in 5% skimmed milk in TBST, and incubated overnight at 4° C. […]

phosphorylation of Msk1 = assay: High-throughput microscopy, phosphorylation of Msk1; type: cell-based; details: Homo sapiens, A-375, A375 cells, anisomycin stimulation, read-out: Cellular EC50 pMSK1
Experimental: A375 cells were stimulated with anisomycin (FIGS. 14A and 14C to 14F), IGF-1 (FIG. 14B), IL-6 (FIG. 14G), and TNF-α (FIG. 14H) for sixty minutes.
Cells were fixed in 2% paraformaldehyde for 10 min at room temperature and washed with PBS-T (Phosphate Buffered Saline, 0.1% Tween 20). Cells were permeabilized in methanol for 10 min at room temperature, washed with PBS-T, and blocked in Odyssey Blocking Buffer (LI-COR Biosciences) for 1 hour at room temperature. Cells were incubated overnight at 4° C. with antibody specific for Erk1/2(pT202/pY204), Akt(pS473), c-Jun(pS73), pP38(T180/Y182) and pSTAT3(Y705) (Cell Signaling Technology), pRSK1(S380) and pMSK1(S376) (Epitomics), and NF-κB (Santa Cruz Biotechnology) diluted 1:400 in Odyssey Blocking Buffer. […] Cells were washed twice with PBS and imaged in an imageWoRx high-throughput microscope (Applied Precision). Data were plotted using DataPflex.

AKT2 = AKT2 (Homo sapiens, UniProt P31751); assay: AKT2 follow-up enzymatic assay; type: biochemical; details: follow-up enzymatic assay (FIG. 12)
Chain of AKT2 (P31751 whole entry, species assumed): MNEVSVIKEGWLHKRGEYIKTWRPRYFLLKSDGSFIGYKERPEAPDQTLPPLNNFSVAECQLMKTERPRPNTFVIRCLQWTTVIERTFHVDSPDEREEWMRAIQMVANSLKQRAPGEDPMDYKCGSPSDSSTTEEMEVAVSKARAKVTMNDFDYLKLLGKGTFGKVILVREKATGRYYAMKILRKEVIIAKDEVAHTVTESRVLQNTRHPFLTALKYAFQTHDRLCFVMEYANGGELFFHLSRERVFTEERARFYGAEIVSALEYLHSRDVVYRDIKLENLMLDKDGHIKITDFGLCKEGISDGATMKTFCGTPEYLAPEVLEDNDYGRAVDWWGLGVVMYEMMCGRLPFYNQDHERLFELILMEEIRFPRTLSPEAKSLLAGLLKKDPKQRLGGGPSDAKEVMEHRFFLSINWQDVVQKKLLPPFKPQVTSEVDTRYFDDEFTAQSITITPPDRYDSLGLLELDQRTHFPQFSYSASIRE
Description: (§1) This high in vitro selectivity however differed markedly from the large number of targets detected by KiNativ.

JNK3 = JNK3 (Homo sapiens, UniProt P53779); assay: Biochemical JNK3 kinase inhibition (Z'-lyte format); details: Table 2
Chain of JNK3 (P53779 whole entry): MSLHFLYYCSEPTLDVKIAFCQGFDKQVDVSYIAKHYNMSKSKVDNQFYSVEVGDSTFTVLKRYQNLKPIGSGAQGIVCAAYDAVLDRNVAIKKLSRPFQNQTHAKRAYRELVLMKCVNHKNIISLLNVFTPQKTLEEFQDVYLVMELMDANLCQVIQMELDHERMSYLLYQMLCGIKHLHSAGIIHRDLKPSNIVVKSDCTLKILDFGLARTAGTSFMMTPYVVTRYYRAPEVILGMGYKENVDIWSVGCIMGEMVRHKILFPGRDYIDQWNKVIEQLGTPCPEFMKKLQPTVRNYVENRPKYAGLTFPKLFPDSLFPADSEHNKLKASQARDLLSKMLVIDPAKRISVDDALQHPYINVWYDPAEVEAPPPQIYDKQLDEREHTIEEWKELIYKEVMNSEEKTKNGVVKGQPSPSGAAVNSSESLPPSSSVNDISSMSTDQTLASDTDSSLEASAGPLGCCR

IRAK1 = IRAK1 (Homo sapiens, UniProt P51617); assay: IRAK1 biochemical kinase assay; details: biochemical / follow-up enzymatic assay; read-out: IC50 against IRAK1
Chain of IRAK1 (P51617 whole entry): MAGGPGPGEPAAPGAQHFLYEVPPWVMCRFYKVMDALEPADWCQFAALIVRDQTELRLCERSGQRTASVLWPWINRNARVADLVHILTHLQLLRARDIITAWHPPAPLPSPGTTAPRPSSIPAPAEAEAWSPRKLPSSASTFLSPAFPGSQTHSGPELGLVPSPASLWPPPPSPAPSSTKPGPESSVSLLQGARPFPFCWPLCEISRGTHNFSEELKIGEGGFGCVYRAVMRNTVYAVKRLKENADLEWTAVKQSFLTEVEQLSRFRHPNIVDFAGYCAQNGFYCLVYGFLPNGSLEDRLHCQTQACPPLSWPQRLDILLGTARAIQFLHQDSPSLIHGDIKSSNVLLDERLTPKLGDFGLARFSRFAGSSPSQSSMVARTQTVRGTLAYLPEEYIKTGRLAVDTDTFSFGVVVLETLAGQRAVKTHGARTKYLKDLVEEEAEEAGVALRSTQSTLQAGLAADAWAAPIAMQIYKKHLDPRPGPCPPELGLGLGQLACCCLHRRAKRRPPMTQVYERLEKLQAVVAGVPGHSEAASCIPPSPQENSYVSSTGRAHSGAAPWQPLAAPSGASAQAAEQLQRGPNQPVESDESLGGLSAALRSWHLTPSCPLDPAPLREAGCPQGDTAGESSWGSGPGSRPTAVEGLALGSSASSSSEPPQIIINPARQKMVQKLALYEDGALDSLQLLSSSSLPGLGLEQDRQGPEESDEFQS

JNK2 = JNK2 (Homo sapiens, UniProt P45984); assay: Biochemical JNK2 kinase inhibition (Z'-lyte format); details: Table 2
Chain of JNK2 (P45984 whole entry): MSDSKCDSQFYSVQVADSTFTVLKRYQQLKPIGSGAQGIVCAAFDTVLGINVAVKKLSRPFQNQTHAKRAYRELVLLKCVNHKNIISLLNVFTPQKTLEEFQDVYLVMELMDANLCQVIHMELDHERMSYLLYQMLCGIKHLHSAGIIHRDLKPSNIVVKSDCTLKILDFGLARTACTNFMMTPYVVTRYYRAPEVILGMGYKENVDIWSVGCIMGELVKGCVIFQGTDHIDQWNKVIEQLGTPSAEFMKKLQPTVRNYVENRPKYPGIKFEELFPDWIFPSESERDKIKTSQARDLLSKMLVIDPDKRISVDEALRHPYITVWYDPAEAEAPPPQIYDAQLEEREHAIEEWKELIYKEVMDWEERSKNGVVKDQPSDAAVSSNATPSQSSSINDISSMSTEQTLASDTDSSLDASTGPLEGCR

JNK1 = JNK1 (Homo sapiens, UniProt P45983); assay: Biochemical JNK1 kinase inhibition (Z'-lyte format); details: Table 2
Chain of JNK1 (P45983 whole entry): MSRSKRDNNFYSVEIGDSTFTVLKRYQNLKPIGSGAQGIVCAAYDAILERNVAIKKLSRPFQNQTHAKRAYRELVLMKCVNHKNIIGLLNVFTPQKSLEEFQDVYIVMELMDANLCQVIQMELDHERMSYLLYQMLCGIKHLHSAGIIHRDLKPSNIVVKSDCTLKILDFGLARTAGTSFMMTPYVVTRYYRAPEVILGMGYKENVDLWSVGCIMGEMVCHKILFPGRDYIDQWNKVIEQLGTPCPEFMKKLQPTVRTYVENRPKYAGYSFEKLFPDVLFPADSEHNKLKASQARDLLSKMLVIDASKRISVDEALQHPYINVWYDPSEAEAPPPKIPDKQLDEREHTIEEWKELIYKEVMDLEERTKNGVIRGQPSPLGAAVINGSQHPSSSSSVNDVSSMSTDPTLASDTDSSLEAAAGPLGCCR

HIPK4 = target: T1, HIPK4 (Homo sapiens, UniProt Q8NE63); assay: HIPK4 follow-up enzymatic assay; type: biochemical; details: follow-up enzymatic assay (FIG. 12)
T1 sequence (Q8NE63 1-616): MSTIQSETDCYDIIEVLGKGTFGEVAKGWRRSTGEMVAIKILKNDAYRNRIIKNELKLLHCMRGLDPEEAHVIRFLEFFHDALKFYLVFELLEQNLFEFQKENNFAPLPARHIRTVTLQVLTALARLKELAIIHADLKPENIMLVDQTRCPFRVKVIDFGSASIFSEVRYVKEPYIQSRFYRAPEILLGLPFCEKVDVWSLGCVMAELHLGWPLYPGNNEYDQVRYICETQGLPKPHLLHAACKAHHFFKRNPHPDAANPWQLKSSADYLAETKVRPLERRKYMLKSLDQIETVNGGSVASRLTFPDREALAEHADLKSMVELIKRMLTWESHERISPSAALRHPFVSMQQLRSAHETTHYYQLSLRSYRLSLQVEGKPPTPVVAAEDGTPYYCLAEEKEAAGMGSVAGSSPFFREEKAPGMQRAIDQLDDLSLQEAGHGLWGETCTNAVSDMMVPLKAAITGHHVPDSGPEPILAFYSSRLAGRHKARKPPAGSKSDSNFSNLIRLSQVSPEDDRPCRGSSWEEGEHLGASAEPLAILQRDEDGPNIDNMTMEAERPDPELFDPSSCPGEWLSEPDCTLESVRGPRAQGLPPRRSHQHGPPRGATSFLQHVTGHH
Description: as §1

[4] = target: panel of 442 distinct kinases; assay: KINOMEscan kinase-binding panel; details: screening concentration of 1 μM
[5] = A375 cells, anisomycin stimulation, high-throughput microscopy, Table 4, read-out: Cellular EC50 pc-Jun
[6] = A375 cells, anisomycin stimulation, read-out: p-c-Jun EC50 (nM) A375

Row | Structure (SMILES) | IC50 or Kd of any further target [1] [nM] | EC50 (c-Jun phosphorylation [2]; [5]) [nM] | EC50 (c-Jun phosphorylation [2]; [6]) [nM] | EC50 (c-Jun phosphorylation [2]; Table 5, A375, read-out: E50/A375) [nM] | time for inhibition of JNK in cells to reach completion (c-Jun phosphorylation [3]; HEK293-ILR1 cells (FIGS. 16A and 16B)) | reversal of inhibition of c-Jun phosphorylation after removal of inhibitor (washout) (c-Jun phosphorylation [3]; HEK293-ILR1 cells, three hours treatment then washout) | EC50 (phosphorylation of Msk1) [nM] | IC50 (AKT2) [nM] | IC50 (JNK3) [nM] | IC50 (IRAK1) [nM] | IC50 (JNK2) [nM] | IC50 (JNK1) [nM] | IC50 (HIPK4) [nM] | KINOMEscan S score (ratio number of kinases inhibited more than 90 percent) [4]
1 | Cc1cc(NC(=O)c2cccc(NC(=O)/C=C/CN(C)C)c2)ccc1Nc1nccc(-c2cccnc2)n1 [JNK-IN-8] | ≥ 1000 | 425 | 338 | 338 | approximately 3 hours | not reversed | > 10000 | – | – | – | – | – | – | –
2 | CN(C)C/C=C/C(=O)Nc1cccc(C(=O)Nc2ccc(Nc3nccc(/C(C#N)=C4\Nc5ccccc5S4)n3)cc2)c1 [JNK-IN-12] | – | 125 | 134 | – | – | – | > 10000 | 89.9 | 11 | 37.6 | 11.3 | 13 | 57.1 | 0.025
